In patent US20200062696A1, “COMPOSITIONS AND METHODS FOR INHIBITING RETICULON 4” (THE REGENTS OF THE UNIVERSITY OF CALIFORNIA, priority 2017, published 2020):

Tests used:
[1] = test system: SW620 colorectal cancer cells; experiment: Cell proliferation of SW620 cells (Hoescht staining); format: cell-based; details: 48 h, vs DMSO, average of n = 3/group
Description: (§1) Cell Culture. SW620 cells were purchased from ATCC. SW620 cells were grown in L-15 media with 10% fetal bovine serum (FBS) in ambient CO2. U2OS cells were grown in DMEM media supplemented with 10% FBS at 37° C. with 5% CO2.
(§2) Survival and Proliferation Assays. Cells were plated the evening before the experiment, and allowed to adhere overnight. For serum-free cell survival assays, cells were plated in media not containing FBS. For cell proliferation assays, cells were plated in regular media. For the chemical genetics screen, cells were treated with either DMSO or the cysteine-reactive fragment for 48 h and cell viability was assessed by Hoescht stain using our previously described methods

[2] = Body weight and overt toxicity of mice in the tumor xenograft study; format: in vivo; details: 50 mg/kg ip once per day, weighed at the end of the study
Description: Mice from tumor xenograft studies shown in FIG. 1E were weighed at the end of the study. […] Data are presented as mean±sem, n=8 mice/group.
Tumor Xenograft Growth Studies. C.B17 SCID male mice (6-8 weeks old) were injected subcutaneously into the flank with 2,000,000 cells in serum-free media. […] Tumors were measured every 7 days by caliper measurements.

[3] = test system: U2OS cells expressing GFP-tagged Sec61β; experiment: ER morphology by fluorescence microscopy in U2OS cells expressing GFP-Sec61β; format: cell-based
Description: Fluorescence microscopy. SW620 and U2OS cells were transiently transfected with a plasmid encoding GFP-tagged Sec61β using fuGENE6 (Roche) according to the manufacturer's instructions. Transfected cells plated on poly-L-lysine treated coverslips were treated, washed in PBS, and fixed by incubation in 4% paraformaldehyde in PBS for 10 min. Fixed cells were washed extensively in PBS and nuclei stained by addition of 4′,6-diamidino-2-phenylindole (DAPI) (Thermo Fisher Scientific) for 10 min. Coverslips were mounted using Fluoromount-G (SouthernBiotech) and visualized using a DeltaVision Elite microscope outfitted with a 60× oil immersion objective. Acquired stacks of images of fixed cells were deconvolved and analyzed using SoftWoRx and ImageJ. For time-lapse imaging of live cells, transfected cells were plated on poly-L-lysine treated glass-bottom 4-well imaging chambers (Lab-Tek II; Thermo Fisher Scientific). Imaging was performed using a DeltaVision Elite microscope encased in a chamber that was maintained at 37° C. and was continuously perfused with humidified 5% CO2. Acquired images were analyzed using SoftWoRx and ImageJ.

[4] = test system: SW620 colorectal cancer cells; experiment: Serum-free cell survival of SW620 cells (Hoescht staining); format: cell-based; details: 48 h, vs DMSO, average of n = 3/group
Description: as §1, §2

[5] = cysteine-reactive fragment 50 μM

C=CC(=O)Nc1ccc(Oc2ccc(Cl)cc2)cc1 [DKM 3-30, N-(4-(4-chlorophenoxy)phenyl)acrylamide]
activity at 50 µM ([1]; Homo sapiens, SW-620, cysteine-reactive fragment 50 μM, read-out: SW620 proliferation Ave): 54% | SW620 proliferation Ave [1, 5]: significantly impaired | body weight and signs of overt toxicity [2]: without any changes in body weight or any signs of overt toxicity | ER morphology in U2OS cells ([3]; DKM 3-30 50 μM (8 hr, 16 hr, time-lapse), AMR 1-125 1 μM, YP 1-46 50 μM): striking loss of nearly all peripheral ER tubules and an increase in ER that exhibited sheet-like morphology | time at which alterations in the ER morphology were evident ([3]; DKM 3-30 50 μM, time-lapse imaging): 0.5-1 hr | viability at 50 µM ([4]; Homo sapiens, SW-620, cysteine-reactive fragment 50 μM, read-out: SW620 survival Ave): 31% | SW620 survival Ave [4, 5]: significantly impaired
